Measurements reported in ChEMBL document CHEMBL1201862, “PubChem BioAssay data set” (2004).
The source made the active and inactive calls.

Key:
[1] = molecular target: Cytochrome P450 2C19 (Homo sapiens, UniProt P33261); assay: Cytochrome panel assay with activity outcomes. Panel member name: p450-cyp2c19 Compounds with AC50 equal or less than 10 uM are considered active; format: functional; conditions: read-out: AC50
[2] = molecular target: Cytochrome P450 2C9 (Homo sapiens, UniProt P11712)
[3] = molecular target: Cytochrome P450 3A4 (Homo sapiens, UniProt P08684);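 note: CYP3A4 tested as one member of a cytochrome P450 panel screen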
Chain of Cytochrome P450 3A4 (P08684 whole entry): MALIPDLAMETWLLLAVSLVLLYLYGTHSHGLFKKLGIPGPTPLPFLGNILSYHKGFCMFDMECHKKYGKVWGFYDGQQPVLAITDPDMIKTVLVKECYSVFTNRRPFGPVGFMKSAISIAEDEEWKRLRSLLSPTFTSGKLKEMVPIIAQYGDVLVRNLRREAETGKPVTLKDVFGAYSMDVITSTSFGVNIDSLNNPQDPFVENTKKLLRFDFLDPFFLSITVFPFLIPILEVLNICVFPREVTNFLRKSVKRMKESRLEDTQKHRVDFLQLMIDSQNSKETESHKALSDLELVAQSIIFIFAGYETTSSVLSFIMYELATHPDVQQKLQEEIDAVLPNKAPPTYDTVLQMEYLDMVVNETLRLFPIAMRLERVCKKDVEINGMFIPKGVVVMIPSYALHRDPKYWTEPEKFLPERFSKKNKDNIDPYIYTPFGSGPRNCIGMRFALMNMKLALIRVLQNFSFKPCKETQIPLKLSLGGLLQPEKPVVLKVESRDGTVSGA

[4] = molecular target: T1, Cytochrome P450 1A2 (Homo sapiens, UniProt P05177)
T1 sequence (P05177 whole entry): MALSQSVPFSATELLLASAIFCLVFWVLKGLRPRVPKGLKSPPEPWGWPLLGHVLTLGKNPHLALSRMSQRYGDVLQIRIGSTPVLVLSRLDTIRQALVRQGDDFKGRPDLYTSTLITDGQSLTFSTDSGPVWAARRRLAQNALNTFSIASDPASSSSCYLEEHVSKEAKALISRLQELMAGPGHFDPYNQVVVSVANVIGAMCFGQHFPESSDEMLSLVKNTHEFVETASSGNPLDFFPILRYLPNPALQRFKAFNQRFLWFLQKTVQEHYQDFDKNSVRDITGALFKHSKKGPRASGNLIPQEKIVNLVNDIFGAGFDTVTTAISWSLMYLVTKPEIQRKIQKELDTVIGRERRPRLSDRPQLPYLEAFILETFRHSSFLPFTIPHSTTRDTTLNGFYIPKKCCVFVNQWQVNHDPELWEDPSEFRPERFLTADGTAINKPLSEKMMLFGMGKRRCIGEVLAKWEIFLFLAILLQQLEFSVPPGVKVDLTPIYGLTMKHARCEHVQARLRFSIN

[5] = molecular target: Cytochrome P450 2D6 (Homo sapiens, UniProt P10635);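 note: CYP2D6 member of a cytochrome P450 panel assay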
Chain of Cytochrome P450 2D6 (P10635 whole entry): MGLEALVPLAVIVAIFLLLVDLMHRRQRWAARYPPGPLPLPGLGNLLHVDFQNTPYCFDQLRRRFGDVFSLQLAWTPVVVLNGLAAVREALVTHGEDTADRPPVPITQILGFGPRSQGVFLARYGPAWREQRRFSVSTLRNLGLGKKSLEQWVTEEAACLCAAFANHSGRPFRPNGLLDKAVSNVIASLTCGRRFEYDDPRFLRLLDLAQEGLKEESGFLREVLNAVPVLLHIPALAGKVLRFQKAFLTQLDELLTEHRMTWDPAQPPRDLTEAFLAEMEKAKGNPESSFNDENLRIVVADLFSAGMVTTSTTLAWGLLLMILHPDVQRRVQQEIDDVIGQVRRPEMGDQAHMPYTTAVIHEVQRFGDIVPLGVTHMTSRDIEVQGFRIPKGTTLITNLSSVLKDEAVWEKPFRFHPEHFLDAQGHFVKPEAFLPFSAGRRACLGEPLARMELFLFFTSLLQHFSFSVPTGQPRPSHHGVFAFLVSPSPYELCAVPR

[6] = Luminescence Cell-Based Dose Retest to Confirm Inhibitors of Cancer Stem Cells. [Related pubchem assays (depositor defined):AID2717, AID2721]; format: functional; conditions: Homo sapiens
[7] = molecular target: T2, Streptokinase A (Streptococcus pyogenes serotype M1, UniProt P10520); assay: viability-normalized secreted streptokinase activity reduction – plasminogen activation absorbance, OD405, dose response (AID 1914); format: functional, Streptococcus pyogenes M1 GAS;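 note: secreted streptokinase activity via plasminogen activation per viability signal from cell pellet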
T2 sequence (P10520 whole entry): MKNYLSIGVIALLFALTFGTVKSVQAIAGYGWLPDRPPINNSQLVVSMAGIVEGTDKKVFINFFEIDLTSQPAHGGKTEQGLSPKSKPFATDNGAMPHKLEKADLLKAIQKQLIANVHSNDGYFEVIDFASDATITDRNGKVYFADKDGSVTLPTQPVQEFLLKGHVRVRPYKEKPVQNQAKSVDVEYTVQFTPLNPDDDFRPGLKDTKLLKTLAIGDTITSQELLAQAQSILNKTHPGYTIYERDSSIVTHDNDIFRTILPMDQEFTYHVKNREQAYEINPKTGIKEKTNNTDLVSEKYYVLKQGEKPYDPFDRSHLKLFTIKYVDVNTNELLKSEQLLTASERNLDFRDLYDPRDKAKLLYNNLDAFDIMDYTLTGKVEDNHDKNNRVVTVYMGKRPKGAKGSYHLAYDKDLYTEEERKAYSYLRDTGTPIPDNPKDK

[8] = tested on: Streptococcus; assay: GAS UMAA2166 growth inhibition – luminescence, BacTiterGlo, counter-screen for streptokinase expression inhibitor project, dose response (AID 1915); format: functional, organism-based;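 note: potency for reduction of bacterial viability or growth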
[9] = tested on: Streptococcus sp. 'group A'; assay: Streptococcus pyogenes SK(-)GAS viability under kanamycin – luminescence, BacTiterGlo, confirmation, counter-screen for streptokinase expression inhibitor project, dose response (AID 1900); format: functional, organism-based

Chain of Cytochrome P450 2C9 (P11712 whole entry): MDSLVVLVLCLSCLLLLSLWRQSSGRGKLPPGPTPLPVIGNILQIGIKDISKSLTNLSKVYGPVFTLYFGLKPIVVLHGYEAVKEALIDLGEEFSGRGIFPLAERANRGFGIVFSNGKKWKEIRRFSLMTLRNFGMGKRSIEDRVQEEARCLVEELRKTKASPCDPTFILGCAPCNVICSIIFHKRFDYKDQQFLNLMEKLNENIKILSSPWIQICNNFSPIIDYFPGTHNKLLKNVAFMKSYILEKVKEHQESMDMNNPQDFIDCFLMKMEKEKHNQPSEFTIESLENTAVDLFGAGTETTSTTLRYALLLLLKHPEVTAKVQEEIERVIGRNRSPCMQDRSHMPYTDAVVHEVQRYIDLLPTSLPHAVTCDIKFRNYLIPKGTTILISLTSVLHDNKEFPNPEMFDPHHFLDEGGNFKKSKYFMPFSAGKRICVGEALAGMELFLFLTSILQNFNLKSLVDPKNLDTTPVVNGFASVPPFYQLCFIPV
Chain of Cytochrome P450 2C19 (P33261 whole entry): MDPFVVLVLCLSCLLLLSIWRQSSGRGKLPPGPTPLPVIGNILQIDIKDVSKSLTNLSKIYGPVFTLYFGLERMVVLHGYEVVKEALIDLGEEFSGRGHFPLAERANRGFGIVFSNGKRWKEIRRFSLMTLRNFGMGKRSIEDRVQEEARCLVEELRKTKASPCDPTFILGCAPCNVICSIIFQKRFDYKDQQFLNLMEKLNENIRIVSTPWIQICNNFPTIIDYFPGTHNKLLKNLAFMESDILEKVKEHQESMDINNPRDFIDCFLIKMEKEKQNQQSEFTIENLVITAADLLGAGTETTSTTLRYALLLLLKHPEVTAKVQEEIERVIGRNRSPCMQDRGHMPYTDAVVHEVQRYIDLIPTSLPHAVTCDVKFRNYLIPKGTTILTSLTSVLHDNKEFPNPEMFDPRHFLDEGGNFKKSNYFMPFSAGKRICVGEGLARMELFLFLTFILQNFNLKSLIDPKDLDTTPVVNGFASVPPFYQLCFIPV

In the case of `CC1CCCC(NC(=O)C2CCN(S(=O)(=O)N3CCC4(CC3)OCCO4)CC2)C1C` (stereo not drawn), the AC50 [1] is reported as 6.31 µM (inconclusive), the AC50 [2] is reported as 39.8 µM (inconclusive) and the AC50 [3] is reported as 14.1 µM (inconclusive).

In the case of `C[C@]1(C2CCCC2)Cc2cc(OCC(=O)O)c(Cl)c(Cl)c2C1=O`, the AC50 [2] is reported as 39.8 µM (inconclusive) and the AC50 [3] is reported as 12.6 µM (inconclusive).

For `CC(=O)NCCNc1ncnc2ccc(-c3ccc(C(=O)N(C)C)cc3)cc12`, the AC50 [4] was 25.1 µM (inconclusive).

In the case of `Cc1cccc(NC(=S)c2nc3ccccc3s2)c1`, the AC50 [3] is reported as 3.98 µM (inconclusive) and the AC50 [5] is reported as 35.5 µM (inconclusive).

In the case of `Cl/C(=N\c1cccc2ccccc12)N(c1ccccc1)c1ccccc1`, the AC50 [3] is reported as 3.98 µM (inconclusive) and the AC50 [4] is reported as 1 µM (inconclusive).

With `Cc1ccc(/N=C/c2cc(C)n(C3CCCC3)c2C)cc1` the AC50 [3] was 20 µM (inconclusive).

For `Oc1c(C(O)(c2ccccc2)c2ccc3ccccc3c2O)ccc2ccccc12`, the AC50 [5] was 3.98 µM (inconclusive) and the AC50 [4] was 1 µM (inconclusive).

For `CC(C)Sc1cc(N2CCOCC2)nc(-c2ccc(Cl)cc2)n1`, the AC50 [1] was 11.2 µM (inconclusive), the AC50 [2] was 11.2 µM (inconclusive) and the AC50 [3] was 17.8 µM (inconclusive).

In the case of `CN1CCN(c2ncc3nc(-c4cccs4)c(=O)n(C[C@H]4CCCO4)c3n2)CC1`, the AC50 [3] is reported as 10 µM (inconclusive).

For `Cn1c(OCc2ccc3c(c2)OCO3)nc2c1c(=O)n(Cc1ccc(Cl)c(Cl)c1)c(=O)n2C`, the AC50 [4] was 14.1 µM (inconclusive).

In the case of `O=C(O)[C@H]1CN(CCCP(=O)(O)O)CCN1`, the AC50 [4] is reported as 39.8 µM (inconclusive).

For `CN(C)c1cc2c(Nc3ccc4c(cnn4Cc4ccccc4)c3)ncnc2cn1` [GW282974X], the AC50 [1] was 25.1 µM (inconclusive) and the AC50 [5] was 31.6 µM (inconclusive).

For `O=C1[C@H]2[C@H]3[C@H](O)[C@H](O)C/C(=N/OC[C@@H](O)COCc4ccco4)[C@H]3CC[C@@H]2C(=O)N1C1CCCCC1`, the AC50 [3] was 3.98 µM (inconclusive).

In the case of `CC1(C)Cc2c(sc3c2C(=O)N(c2ccccc2)C2=NCCN23)CS1`, the AC50 [4] is reported as 22.4 µM (inconclusive).

With `COc1ccc(/C=C2\C(=O)c3ccccc3OC2c2ccccc2)cc1` (stereo not drawn) the AC50 [6] was 1.12 µM (active).

With `Cc1cc2nc(CSc3ccccc3)cc(O)n2n1` the EC50 [7] was > 150 µM (not active).

For `O=C(c1ccc(CSc2ccccc2)cc1)N1CCN(c2ccccc2)CC1`, the AC50 [6] was 3.26 µM (active).

With `O=C(Nc1ccc(Cl)cc1C(=O)c1ccccc1)c1ccco1` the AC50 [2] was 3.98 µM (inconclusive) and the AC50 [3] was 22.4 µM (inconclusive).

With `CC(C)(C)N(Cc1ccccc1)C(=O)c1cc2ccccc2o1` the AC50 [6] was 0.407 µM (active).

In the case of `O=C(CSc1nnc(CNc2ccc(F)cc2)o1)N1c2ccccc2Sc2ccccc21`, the AC50 [4] is reported as 10 µM (inconclusive).

With `CCc1nc(N2CCN(Cc3ccc4c(c3)OCO4)CC2)c2oc3ccccc3c2n1` the AC50 [6] was 2.71 µM (active).

In the case of `C=CC[C@@H]1C=C[C@H](O/N=C2\c3cc(OC)ccc3O[C@H](c3cccc(OC)c3)[C@H]2O)[C@H](CO)O1`, the AC50 [1] is reported as 3.16 µM (inconclusive) and the AC50 [5] is reported as 5.01 µM (inconclusive).

With `COc1ccccc1-c1nccc(NCc2cnc(C)cn2)n1` the AC50 [3] was 39.8 µM (inconclusive).

With `COC(=O)c1ccc(CN(c2ccc(C(=O)O)c(O)c2)S(=O)(=O)c2ccc(Cl)c([N+](=O)[O-])c2)cc1` the AC50 [6] was 4.38 µM (active), the EC50 [8] was 5.96 µM (active) and the EC50 [9] was 1.48 µM (active).

With `O=C(Nc1ccc2c(c1)OCO2)c1cc(-c2cccc(O)c2)on1` the AC50 [6] was 0.715 µM (active).
